Results on 8 molecules are retold here after US6342534B1, “Analogs of biologically active, naturally occurring polyamines, pharmaceutical compositions and methods of treatment” (University of Florida Research Foundation, Inc., priority 1986, dated 2002).

Each structure is given as a SMILES string. Read-outs that look alike come from different tables or passages of the source.

One experiment relates to L1210 cells. In words: Growth inhibition of L1210 cells (IC50 at 48/96 h). The format is cell-based. As to conditions: Mus musculus.
In experiment [1] the test system is a variety of tumors in cell culture. The experiment in a line: Anti-neoplastic activity against tumors in cell culture. The format is cell-based. From the text:
(§1) If there is any significance to the role of charge interaction in the biological properties of the polyamine analogs, alterations in the polyamine methylene backbone should have significant impact on the compound's biological properties. […] The trifluoroethyl group substantially reduces the pKa of the terminal nitrogens and they are no longer protonated [J. Org. Chem., Vol. 24, “Fluorine containing nitrogen compounds—I Trifluoroethylamines,” Bissel et al, pages 1256-1259 (1959)]. Even though the dimensions of bis-β,β,β-trifluoroethylspermine and diethylspermine are essentially the same, what was once a tetracationic spermine analog is now only a dication. […] The same phenomenon is observed when one acetylates a terminal nitrogen of spermine. The amide nitrogen is not protonated at physiological pH, and the compound has no anti-neoplastic properties and behaves very much like spermidine in displacing ethidium iodide from DNA.

The test system of the next experiment is calf thymus DNA. The experiment in a line: Displacement of ethidium iodide from calf thymus DNA. In kind it is binding. As to conditions: compared with natural polyamines.
Text: as §1

For experiment [2] the following is noted: cited from earlier work.
Where [3] appears, read: Table 1, 48 h, read-out: IC50 (μM) of L1210 cells at 48 h.
Where [4] appears, read: Table 1, 96 h, read-out: IC50 (μM) of L1210 cells at 96 h.

As for `C(CCNCC1CCNCC1)CNCC1CCNCC1`, the IC50 (commonly the midpoint of a concentration-inhibition curve) in the experiment on L1210 cells (setting [3]) stood at 2 µM; in the experiment on L1210 cells (setting [4]) it was 0.2 µM.
For the molecule `c1cc(CNCCCCNCc2ccncc2)ccn1`, the IC50 in the experiment with L1210 cells (setting [3]) is above 100 µM; with L1210 cells (setting [4]) it was 90 µM.
The corresponding values for `C(CCNCCC1CCNCC1)CNCCC1CCNCC1` are above 100 µM and 0.25 µM.
In the case of `c1cc(CCNCCNCCc2ccncc2)ccn1`, the IC50 in the experiment on L1210 cells (setting [3]) and in the experiment with L1210 cells (setting [4]) was above 100 µM in each case.
As for `FC(F)(F)CNCCCNCCCCNCCCNCC(F)(F)F` [BTFESPM, bis-β,β,β-trifluoroethylspermine], in experiment [1], the anti-neoplastic activity entry was “essentially disappears”. For the same molecule, the “ability to displace ethidium iodide from calf thymus DNA” value in the experiment with calf thymus DNA is listed as “behave more like putrescine than spermine”.
As for `CCNCCCCNCCCCNCCCCNCC` [DEHSPM, diethyl-homospermine], the “SAT up-regulation (factor)” value in experiment [2] is “little impact on SAT levels”.
As to `CCNCCCNCCCNCCCNCC` [DENSPM, diethylnorspermine], in experiment [2], the “SAT up-regulation (factor)” value is given as 1,200 fold.
On to `CCNCCCNCCCCNCCCNCC` [DESPM, N^1,N^12-diethylspermine], for which the anti-neoplastic activity entry in experiment [1] is given as “quite active”. Besides, the “SAT up-regulation (factor)” value in experiment [2] is 200 fold.
